Bounds are passed on as bounds.

For test [1], the system named is PGBM-R patient tumor tissue (recurrent tumor from same patient as PGBM). Description: Drug screening of uncultured patient tumor tissue PGBM-R on OBSCs. The test is classed as cell-based, human. The conditions noted are these: for EC90: Homo sapiens, PGBM-R on OBSCs, dose required to kill 90% of the tumor; for increase of DSS in the recurrent tumor: PGBM-R relative to PGBM. As for the experimental part:
(§1) Tumor cells were seeded onto OBSCs 2h after slicing as described above. One day after tumor seeding, six concentrations of each drug were diluted in the media underneath each culture insert, or XRad was applied using an X-Rad 320 Precision X-ray machine (n = 4 tumor foci per concentration; n ≥ 24 tumor foci per drug per cell line). Three days after treatment, the bioluminescence of live tumor cells was measured using an AMI optical imager (Spectral Instruments) and dose-response curves were generated. Tumor survival was normalized to day one tumor fluorescence and compared to an untreated control group.
(§2) To engraft onto OBSCs, the cryopreserved/thawed or fresh brain tumor tissue was filtered through a 100 μm cell strainer. Each 50 mg of tissue was transfected with 1mL mcherry-FLuc Lentivirus at 1.5e7 vg/ml with 1μL polybrene for 4h at 37°C. After incubation, the brain tumor tissue was washed with PBS three times to remove the residual virus and reconstituted in PBS with a final volume of 150 μL. Then the tissue solution was engrafted atop OBSCs at ∼0.5 mg tissue in 3 μL of PBS on each hemisphere of the slice. The OBSC engrafted with patient tumor tissue was incubated at 37°C with 5% CO2 and 95% humidity. The BSM was changed after 24h and subsequently every 3 days. Tumor treatment studies were executed as described above for tumor lines. The viability of the patient tissue was measured by an AMI optical imaging system with the addition of 1.5 mg/mL luciferin underneath the culture insert.
(§3) Several weighted parameters were factored into an overall drug sensitivity score.
(§4) For DSS parameters 1–6, therapeutic windows were calculated by comparing OBSC toxicity and tumor response at the doses where tumor kill passed through the DSS parameter (Table S1 and S3). For DSS parameter 7, the therapeutic window was calculated by comparing the slopes through the tumor EC50 and the OBSC tox EC50. For DSS parameter 8, the therapeutic window was calculated by comparing the areas under tumor kill and OBSC tox curves. Normalized therapeutic window ratios for DSS parameters 1–8 within each drug-tumor-OBSC interaction were calculated in the following manner: within each window, values ranged from +1 to −1, where values approaching +1 signify increasing tumor kill relative to normal tissue toxicity, and values approaching −1 indicate agents where tumors remained highly viable while toxicity to the normal OBSC tissue was elevated. DSS parameters 9–11 were determined based on the behavior of the tumor in response to the drug, as defined above.
(§5) All individually weighed parameters were added together to generate the DSS. Overall DSS from 0 to 100 signify increasing efficacy in tumor kill relative to OBSC toxicity, while scores from 0 to −100 describe scenarios in which tumors thrive more effectively than OBSCs for a given treatment. Dose-response values were calculated via linear interpolation of raw data, not from best-fit curve equations.

Test [2] deals with MG-II patient tumor tissue (WHO grade II meningioma). In words: Drug screening of uncultured patient tumor tissue MG-II on OBSCs. The format is cell-based. The settings on record: Homo sapiens; for EC90: dose required to kill 90% of the tumor. As for the experimental part:
as §1, §2, §3, §4, §5

Test [3] has as its system LBM patient tumor tissue (Stage III NSCLC adenocarcinoma). In words: Drug screening of uncultured patient tumor tissue LBM on OBSCs. The test is classed as cell-based. The conditions noted are these: Homo sapiens; for EC90: dose required to kill 90% of the tumor. The procedure: as §1
(§6) To engraft onto OBSCs, the cryopreserved/thawed or fresh brain tumor tissue was filtered through a 100 μm cell strainer. Each 50 mg of tissue was transfected with 1mL mcherry-FLuc Lentivirus at 1.5e7 vg/ml with 1μL polybrene for 4h at 37°C. After incubation, the brain tumor tissue was washed with PBS three times to remove the residual virus and reconstituted in PBS with a final volume of 150 μL. […] The viability of the patient tissue was measured by an AMI optical imaging system with the addition of 1.5 mg/mL luciferin underneath the culture insert. […]
as §4, with “DSS parameters 9–11 were determined based on the behavior of the tumor in response to the drug, as defined above.” left out

The test system of test [4] is GBM-MG patient tumor tissue (GBM w/ WHO I meningioma). Description: Drug screening of uncultured patient tumor tissue GBM-MG on OBSCs. The test is classed as cell-based. The conditions noted are these: Homo sapiens, dose required to kill 90% of the tumor. As for the experimental part: as §1
(§7) To engraft onto OBSCs, the cryopreserved/thawed or fresh brain tumor tissue was filtered through a 100 μm cell strainer. […] The viability of the patient tissue was measured by an AMI optical imaging system with the addition of 1.5 mg/mL luciferin underneath the culture insert. […]
(§8) For DSS parameters 1–6, therapeutic windows were calculated by comparing OBSC toxicity and tumor response at the doses where tumor kill passed through the DSS parameter (Table S1 and S3). For DSS parameter 7, the therapeutic window was calculated by comparing the slopes through the tumor EC50 and the OBSC tox EC50. For DSS parameter 8, the therapeutic window was calculated by comparing the areas under tumor kill and OBSC tox curves. […]

In test [5] the test system is MG-I patient tumor tissue (WHO I meningioma). In words: Drug screening of uncultured patient tumor tissue MG-I on OBSCs. The format is cell-based. The settings on record: Homo sapiens, dose required to kill 90% of the tumor. As for the experimental part: as §1, §7, §8
The test system of test [6] is ODDG patient tumor tissue (WHO grade III oligodendroglioma). In words: Drug screening of uncultured patient tumor tissue ODDG on OBSCs. The format is cell-based. The conditions noted are these: Homo sapiens. As for the experimental part: as §1, §7, §8
Test [7] deals with SE-I patient tumor tissue (WHO I subependymoma). In words: Drug screening of uncultured patient tumor tissue SE-I on OBSCs. The test is classed as cell-based. The conditions noted are these: Homo sapiens; for EC90: dose required to kill 90% of the tumor. As for the experimental part:
as §1, §6
as §4, with “DSS parameters 9–11 were determined based on the behavior of the tumor in response to the drug, as defined above.” left out

Setting [8] is: dose required to kill 50% of the tumor.

With `CC(=O)Nc1cccc(-n2c(=O)n(C3CC3)c(=O)c3c(Nc4ccc(I)cc4F)n(C)c(=O)c(C)c32)c1` [Trametinib], in test [1], the EC90 (usually the point of the concentration-response curve where the effect stands at 90%) was > 10 µM and the “increase of DSS in the recurrent tumor” value is listed as 58 points. In test [2], the EC90 was > 10 µM.
On to `Nc1ccn([C@@H]2O[C@H](CO)[C@@H](O)C2(F)F)c(=O)n1` [Gemcitabine], for which the EC90 in test [2] was > 10 µM.
`O=NN(CCCl)C(=O)NC1CCCCC1` [Lomustine]: in test [3], the EC90 is > 10 µM.
Turning to `Cn1nnc2c(C(N)=O)ncn2c1=O` [Temozolomide], the 90% effect concentration (EC90) in test [1], in test [4], in test [5], in test [2], in test [6] (dose required to kill 90% of the tumor) and in test [7] was > 10 µM throughout. The EC90 in test [3] is > 10 µM. Besides, the “DSS (drug sensitivity score)” value in test [1] (PGBM-R patient tissue, scale -100 to +100) is recorded as 17. Besides, the EC50 in test [2] (setting [8]), in test [6] (setting [8]), in test [7] (setting [8]) and in test [3] (setting [8]) was > 100 µM each time.
Take `Nc1ncn([C@@H]2O[C@H](CO)[C@@H](O)[C@H]2O)c(=O)n1` [Azacitidine]: in test [1], the “increase of DSS in the recurrent tumor” value was 96 points. Also, the EC90 in test [5] and in test [7] was > 10 µM each time.
Consider `CC[C@]1(O)C[C@H]2CN(CCc3c([nH]c4ccccc34)[C@@](C(=O)OC)(c3cc4c(cc3OC)N(C=O)[C@H]3[C@@](O)(C(=O)OC)[C@H](OC(C)=O)[C@]5(CC)C=CCN6CC[C@]43[C@@H]65)C2)C1` [Vincristine], for which the EC90 in test [2] was > 10 µM.

The values above are taken from article PMC10313921, “A living ex vivo platform for functional, personalized brain cancer diagnosis” (Cell Reports Medicine, 2023).
